Source: patent US20110045101A1, “FUNGICIDAL SUBSTITUTED AZOLES” (E.I. Du Pont De Nemours and Company, priority 2009, published 2011)
Marks after values point to notes of the source that are not given here.

How the values were obtained:
Assay type in all cases: in vivo
Details in all cases: 100 = 100% disease control
Botrytis cinerea = assay: Test C: tomato Botrytis on tomato seedlings, sprayed the day before inoculation, visual disease rating
Outline: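 Compounds were dissolved in acetone (3% of final volume), then suspended in 50/50 acetone/purified water containing 250 ppm polyhydric alcohol ester surfactant. Suspensions were sprayed to run-off on tomato seedlings at 200 ppm, equivalent to 500 g/ha, or at 40 ppm where marked.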

Septoria tritici = assay: Test G: wheat leaf blotch on wheat seedlings, sprayed the day before inoculation, visual disease rating
Outline: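 Disease was rated visually after Septoria tritici inoculation, 48 h saturated incubation at 24°C and 19 days in a 20°C growth chamber. Inoculation followed one day after run-off spraying of seedlings with compound at 200 ppm (≈500 g/ha) or, where marked, 40 ppm, formulated in acetone/water with surfactant.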

[1] = test system: Puccinia recondita f. sp. tritici; assay: Test I: wheat leaf rust on wheat seedlings, sprayed the day before inoculation, visual disease rating
Outline: (§1)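 Compounds were dissolved in acetone (3% of final volume), then suspended in 50/50 acetone/purified water with 250 ppm Trem® 014 surfactant. Suspensions at 200 ppm (some at 40 ppm) were sprayed to run-off, 200 ppm being equivalent to 500 g/ha.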

[2] = test system: Erysiphe graminis f. sp. tritici; assay: Test J: wheat powdery mildew on wheat seedlings, sprayed the day before inoculation, visual disease rating
Outline: as §1

Alternaria solani = assay: Test D: tomato early blight, sprayed the day before inoculation, visual disease rating
Outline: as §1

Septoria nodorum = assay: Test F: wheat glume blotch on wheat seedlings, sprayed the day before inoculation, visual disease rating
Outline: as §1

[3] = 40 ppm (marked *), 0 = no control
[4] = 200 ppm, 0 = no control relative to controls

**Q.** Which results are given for `COc1cc(F)c(-n2cnc(Cl)c2-c2ccc(Cl)cc2)c(F)c1` [compound 277]?
**A.** Test C disease control rating (Botrytis cinerea; [3]): 99* %; Test G disease control rating (Septoria tritici; [3]): 89* %; Test I disease control rating [1, 3]: 88* %; Test J disease control rating [2, 3]: 94* %; Test D disease control rating (Alternaria solani; [3]): 0* %; Test F disease control rating (Septoria nodorum; [3]): 0* %

**Q.** Which “Test C disease control rating” value (Botrytis cinerea; 200 ppm, 0 = no control) does the source give for `COc1ccc(F)c(-c2c(Cl)nc(Br)n2-c2cccc(F)c2)c1F` [compound 278] here?
**A.** 99%

**Q.** What about the “Test G disease control rating” value (Septoria tritici; 200 ppm, 0 = no control) of the same compound?
**A.** 95%

**Q.** What about the “Test I disease control rating” value ([1]; 200 ppm, 0 = no control) of the same compound?
**A.** 100%

**Q.** What about the “Test J disease control rating” value ([2]; 200 ppm, 0 = no control) of the same compound?
**A.** 100%

**Q.** And the “Test D disease control rating” value (Alternaria solani; 200 ppm, 0 = no control)?
**A.** 100%

**Q.** What about the “Test F disease control rating” value (Septoria nodorum; 200 ppm, 0 = no control) of the same compound?
**A.** 100%

**Q.** Which “Test C disease control rating” value (Botrytis cinerea; 200 ppm, 0 = no control) does the source give for `COc1ccc(F)c(-c2c(Cl)nc(Cl)n2-c2cccc(F)c2)c1F` [compound 279] here?
**A.** 100%

**Q.** And the “Test G disease control rating” value (Septoria tritici; 200 ppm, 0 = no control)?
**A.** 93%

**Q.** And the “Test I disease control rating” value ([1]; 200 ppm, 0 = no control)?
**A.** 100%

**Q.** And the “Test J disease control rating” value ([2]; 200 ppm, 0 = no control)?
**A.** 100%

**Q.** And the “Test D disease control rating” value (Alternaria solani; 200 ppm, 0 = no control)?
**A.** 100%

**Q.** And the “Test F disease control rating” value (Septoria nodorum; 200 ppm, 0 = no control)?
**A.** 100%

**Q.** For `COc1ccc(F)c(-c2c(Cl)nc(Br)n2-c2ccc(C)cc2)c1F` [compound 281], which “Test C disease control rating” value (Botrytis cinerea; 200 ppm, 0 = no control) is on record?
**A.** 100%

**Q.** And the “Test G disease control rating” value (Septoria tritici; 200 ppm, 0 = no control)?
**A.** 96%

**Q.** What about the “Test I disease control rating” value ([1]; 200 ppm, 0 = no control) of the same compound?
**A.** 100%

**Q.** What about the “Test J disease control rating” value ([2]; 200 ppm, 0 = no control) of the same compound?
**A.** 100%

**Q.** And the “Test D disease control rating” value (Alternaria solani; 200 ppm, 0 = no control)?
**A.** 100%

**Q.** And the “Test F disease control rating” value (Septoria nodorum; 200 ppm, 0 = no control)?
**A.** 97%

**Q.** What does the source list for `COc1cc(F)c(-n2c(Cl)nc(Cl)c2-c2ccc(Cl)cc2)c(F)c1` [compound 297]?
**A.** Test C disease control rating (Botrytis cinerea; [3]): 99* %; Test G disease control rating (Septoria tritici; [3]): 94* %; Test I disease control rating [1, 3]: 99* %; Test J disease control rating [2, 3]: 100* %; Test D disease control rating (Alternaria solani; [3]): 100* %; Test F disease control rating (Septoria nodorum; [3]): 99* %

**Q.** Which results are given for `Cc1nc(C)n(-c2ccc(Cl)cc2)c1-c1c(F)ccc(F)c1Cl` [compound 388]?
**A.** Test C disease control rating (Botrytis cinerea; [4]): 99%; Test G disease control rating (Septoria tritici; [4]): 99%; Test I disease control rating [1, 4]: 100%; Test J disease control rating [2, 4]: 100%; Test D disease control rating (Alternaria solani; [4]): 100%; Test F disease control rating (Septoria nodorum; [4]): 60%

**Q.** What does the source list for `Cc1nc(Cl)n(-c2ccc(Cl)c(F)c2)c1-c1c(F)ccc(F)c1F` [compound 389]?
**A.** Test C disease control rating (Botrytis cinerea; [4]): 98%; Test G disease control rating (Septoria tritici; [4]): 91%; Test I disease control rating [1, 4]: 99%; Test J disease control rating [2, 4]: 98%; Test D disease control rating (Alternaria solani; [4]): 100%; Test F disease control rating (Septoria nodorum; [4]): 0%

**Q.** With `COc1cc(F)c(-c2c(Cl)nc(C)n2-c2ccccc2)c(F)c1C` [compound 439] as the compound, how does the “Test C disease control rating” value (Botrytis cinerea; [4]) read?
**A.** 97%

**Q.** What about the “Test G disease control rating” value (Septoria tritici; [4]) of the same compound?
**A.** 94%

**Q.** And the “Test I disease control rating” value [1, 4]?
**A.** 100%

**Q.** What about the “Test J disease control rating” value [2, 4] of the same compound?
**A.** 100%

**Q.** What about the “Test D disease control rating” value (Alternaria solani; [4]) of the same compound?
**A.** 100%

**Q.** And the “Test F disease control rating” value (Septoria nodorum; [4])?
**A.** 95%

**Q.** How did the “Test C disease control rating” value (Botrytis cinerea; [4]) turn out when `Fc1ccc(F)c(-c2c(Cl)nc(Br)n2-c2ccc(Cl)c(Cl)c2)c1F` [compound 440] was run?
**A.** 99%

**Q.** And the “Test G disease control rating” value (Septoria tritici; [4])?
**A.** 95%

**Q.** What about the “Test I disease control rating” value [1, 4] of the same compound?
**A.** 98%

**Q.** And the “Test J disease control rating” value [2, 4]?
**A.** 99%

**Q.** And the “Test D disease control rating” value (Alternaria solani; [4])?
**A.** 100%

**Q.** And the “Test F disease control rating” value (Septoria nodorum; [4])?
**A.** 98%

**Q.** Which “Test C disease control rating” value (Botrytis cinerea; [4]) does the source give for `CCc1ccc(-n2c(Br)nc(Cl)c2-c2c(F)ccc(OC)c2F)cc1` [compound 441] here?
**A.** 97%

**Q.** And the “Test G disease control rating” value (Septoria tritici; [4])?
**A.** 97%

**Q.** What about the “Test I disease control rating” value [1, 4] of the same compound?
**A.** 97%

**Q.** And the “Test J disease control rating” value [2, 4]?
**A.** 99%

**Q.** What about the “Test D disease control rating” value (Alternaria solani; [4]) of the same compound?
**A.** 99%

**Q.** What about the “Test F disease control rating” value (Septoria nodorum; [4]) of the same compound?
**A.** 0%

**Q.** Which results are given for `CCc1ccc(-n2c(Cl)nc(Cl)c2-c2c(F)ccc(OC)c2F)cc1` [compound 442]?
**A.** Test C disease control rating (Botrytis cinerea; [4]): 99%; Test G disease control rating (Septoria tritici; [4]): 95%; Test I disease control rating [1, 4]: 99%; Test J disease control rating [2, 4]: 100%; Test D disease control rating (Alternaria solani; [4]): 99%; Test F disease control rating (Septoria nodorum; [4]): 0%

**Q.** Which results are given for `COc1ccc(F)c(-c2c(Cl)nc(Br)n2-c2ccc(I)cc2)c1F` [compound 443]?
**A.** Test C disease control rating (Botrytis cinerea; [4]): 99%; Test G disease control rating (Septoria tritici; [4]): 97%; Test I disease control rating [1, 4]: 89%; Test J disease control rating [2, 4]: 100%; Test D disease control rating (Alternaria solani; [4]): 99%; Test F disease control rating (Septoria nodorum; [4]): 99%
